The test system of the assay is F. effusum. The assay is described as follows: Suppression of F. effusum sporulation on pecan terminal shoots. The settings on record: 72 hours at 25° C.; for suppression of F. effusum sporulation, Abbott's formula relative to the acetone control: undiluted metabolites or fungicide products. In kind it is in vivo, Fusicladosporium effusum. How it is done:
Dormant twigs with spore lesion constitute a primary source of scab infestation in pecan orchards. Scab disbursal via twig lesion sporulation occurs in early spring when temperatures are optimal. […] The shoots were selected for uniformity in diameter, cut into 5 cm segments, and placed into 1.5×10 cm test tubes.
Pecan shoots were sonicated for 30 minutes in 6 ml of 1% TWEEN 20 solution (polyoxyehtylene (20) sorbitan monolaurate). The number of spores released per lesion was counted via a hemocytometer. […]. A portion of the shoots were sonicated and counted prior to exposure to fungicidal treatments to verify that the shoots had not sporulated. The initial shoots lesions were designated as the baseline treatment.
Shoots were exposed to the following fungicidal treatments: undiluted metabolites derived from either P. luminescens (Hb) or X. bovienii (SN), and three chemical fungicide products used for control of F. effusum, i.e., dodine (Dodine 65W, 65% active ingredient, wettable powder, Platte Chemical Co. Greeley, Colo.), fenbuconazole (ENABLE 2F, 240 grams/liter active ingredient, flowable, Dow AgroSciences, Indianapolis Ind.), and triphenyltin hydroxide (SUPERTIN, 80% active ingredient, wettable powder, Griffin L. L. C., Valdosta, Ga.). The bacteria P. luminescens (Hb) was isolated from Heterorhabditis bacteriophora Poinar. The bacteria X. bovienii (SN) was isolated from Steinernema feltiae (Filipjev).
The shoots were also exposed to a water control and acetone control. Acetone was used as a solvent for the metabolites. The treatments were applied using an airbrush sprayer. The shoots were incubated at 25° C. for 72 hours, and exposed to sonification and quantification of spores. Ten replicate shoots for each treatment and the experiment was repeated once.

Turning to `CCCCCCCCCCCCNC(=N)N` [dodine], the “suppression of F. effusum sporulation, Abbott's formula relative to the acetone control” value stood at 49.6%.

On to `N#CC(CCc1ccc(Cl)cc1)(Cn1cncn1)c1ccccc1` (stereo not drawn) [fenbuconazole], for which the “suppression of F. effusum sporulation, Abbott's formula relative to the acetone control” value stood at 80.4%. In the case of `[OH][Sn]([c]1ccccc1)([c]1ccccc1)[c]1ccccc1` [triphenyltin hydroxide], the “sporulation of F. effusum on pecan shoots relative to the acetone or water control” value (FIG. 3) is reported as “No effect was detected”.

The record behind these values is US8609083B1, “Method for controlling fungal pathogen with bacterial metabolite” (The United States of America, as represented by the …, priority 2007, dated 2013).
